Each structure is given as a SMILES string. Numbers after ± are expanded uncertainties.

The conditions of series [1]: Crystal.
Series [2] is described as follows: Molar enthalpy of transition or fusion. The following applies: Crystal; DSC.
A short description of series [3]: Solid-liquid equilibrium temperature. The note with it: Crystal.

For the molecule `O=C(O)C1CCCCC1` [cyclohexanecarboxylic acid], the Normal melting temperature in series [1] (DTA) came to 29.8 ± 0.5 °C. The “Molar enthalpy of transition or fusion” value in series [2] was found to be 2.2 ± 0.0645 kcal/mol. The Solid-liquid equilibrium temperature was determined as 303.15 ± 0.26 K in series [3] (800 kPa, visual observation); 313.15 ± 0.52 K in series [3] (31000 kPa, visual observation); 323.15 ± 0.9 K in series [3] (63000 kPa, visual observation); 333.15 ± 1.3 K in series [3] (92000 kPa, visual observation); 343.15 ± 1.7 K in series [3] (121000 kPa, visual observation); 353.15 ± 2.1 K in series [3] (150000 kPa, visual observation).
On to `CC(=O)OC1CCCCC1` [cyclohexyl ethanoate], for which the Normal melting temperature in series [1] (DTA) is -51.70 ± 0.4 °C. Also, the “Molar enthalpy of transition or fusion” value in series [2] came out at 0.809 ± 0.0406 kcal/mol.
Turning to `O=C(O)CC1CCCCC1` [cyclohexylethanoic acid], in series [1] (DTA), the Normal melting temperature stood at 28.8 ± 0.4 °C. In addition, the “Molar enthalpy of transition or fusion” value in series [2] is 3.3 ± 0.086 kcal/mol.
Consider `CC(=O)OCCC1CCCCC1` [cyclohexylethyl acetate], for which the Normal melting temperature in series [1] (DTA) was -51.70 ± 0.39 °C.
For the molecule `CCCCCCCCO` [octan-1-ol], the Normal melting temperature in series [1] was -14.60 ± 0.62 °C. For the same molecule, the Solid-liquid equilibrium temperature in series [3] (216000 kPa, Closed cell (Static) method) is on record as 303.15 ± 1.7 K; in series [3] (268000 kPa, Closed cell (Static) method), 313.15 ± 1.9 K; in series [3] (329000 kPa, Closed cell (Static) method), 323.15 ± 2 K; in series [3] (400000 kPa, Closed cell (Static) method), 333.15 ± 2.2 K; in series [3] (480000 kPa, Closed cell (Static) method) it was 343.15 ± 2.3 K; in series [3] (569000 kPa, Closed cell (Static) method) it was 353.15 ± 2.6 K.

Values taken from the NIST ThermoML archive (doi:10.1016/j.jct.2007.10.004).
